Literature values in PMC5473336 (Journal of medicinal chemistry, 2016).
Entries after “also recorded” stand apart in the source; their conditions may differ. Like-named read-outs stand apart in the source and are kept apart here.

Tests used:
[1] = tested on: RAD51; conditions: cited from earlier work
[2] = tested on: human cells; conditions: following irradiation; cited from earlier work
[3] = tested on: RAD51; conditions: cited from earlier work; remark: listed apart in the source

## C[C@@]12CCC(=O)c3coc(c31)C(=O)c1cc3c(cc12)C(=O)C=CC3=O [halenaquinone]
[1]
  RAD51 D-loop activity (in words): specifically inhibit D-loop formation
[1]; listed as Halenaquinone
  RAD51 D-loop activity (in words): strongly inhibit
[2]
  RAD51 foci at DSB sites in cells (in words): inhibit the formation of RAD51 foci; also recorded: reduces the subnuclear appearance of RAD51 foci
[3]
  RAD51 ssDNA binding activity (in words): sparing
